Laboratory results as given in patent US5935606A, “Reversing excitotoxic CNS damage by cellular implantation” (priority 1995, dated 1999).

Columns and labels:
NMDA receptor [1] = assay: NMDA-induced thermal hyperalgesia (Hargreaves paw withdrawal latency) in rats with spinal subarachnoid transplants; format: in vivo, rat; conditions: for effect of antagonist pretreatment on NMDA dose-response curve, noxious thermal stimuli, compared to saline pretreatment: adrenal medullary transplanted animals, s.c. 20 min prior to NMDA (2.5, 5.0, 10.0 nmol), naloxone 2.0 mg/kg, phentolamine 10.0 mg/kg
Method: (§1) Experimental procedures were approved and carried out in accordance the Guidelines of the Animal Care Committee, University of Illinois at Chicago. Male Sprague-Dawley rats weighing 325-375 g (Sasco, Madison, Wis.) at the beginning of the study were used as both graft donors and recipients. Graft recipients were anesthetized (Nembutal, 40 mg/kg, i.p., supplemented as necessary) and implanted with intrathecal catheters according to methods described by Yaksh and Rudy [T. L. Yaksh and T. A. Rudy, Physiol. Behav., 17:1031-1036 (1976)]. Catheters were made of PE10 tubing with a knot sealed with dental acrylic at 7.5 cm. The catheters were threaded through a slit in the atlanto-occipital membrane to the lumbar spinal subarachnoid space, and the free ends were anchored to the skull using cyanoacrylate. Donor adrenal medullary tissue was dissected from cortical tissue and cut into small pieces (<0.5 cm^3). Adrenal medullary tissue from two adrenal glands was used as this amount was shown in previous studies to produce significant antinociception using several behavioral tests [A. T. Hama and J. Sagen, Pain, 52:223-231 (1993); J. Sagen et al., Pain, 42:69-79 (1990); H. Wang and J. Sagen, J. Neural Transplant. Plastic., 5:49-64 (1994)]. Control animals received equal volumes of striated muscle tissue from donors. Graft tissue was implanted in the spinal subarachnoid space via laminectomy at the level of the lumbar enlargement as described previously [J. Sagen et al., Brain Res., 384:189-194 (1986); J. Sagen et al., Pain, 42:69-79 (1990)]. Following surgical procedures, musculature was sutured (4-0 silk), and the skin closed with wound clips. Animals were housed individually and allowed food and water ad libitum.
Animals were allowed to recover from surgical procedures for two weeks prior to commencement of behavioral testing. Responses to noxious and innocuous stimuli were determined using three tests sequentially: the Hargreaves model for thermal hyperalgesia [K. M. Hargreaves et al., Pain, 32:223-231 (1988)], the Randall-Selitto test for mechanical hyperalgesia, and von Frey thresholds for tactile allodynia. To assess response to a noxious thermal stimulus, rats were placed on an elevated glass floor beneath an inverted clear plastic cage, and a radiant heat source beneath the glass was aimed at the plantar surface of the hindpaw. The onset of light activated a timer which was terminated by a hindpaw withdrawal response. […] The apparatus automatically terminates at a scale reading of 25 (=1000 g). […]
(§2) The first group of animals was used in order to determine the time course and dose-responsiveness to intrathecally injected NMDA. […] Baseline responses to all three tests were assessed at the beginning of each test day prior to drug injection. […]

NMDA receptor [2] = assay: NMDA-induced mechanical hyperalgesia (Randall-Selitto test) in rats with spinal subarachnoid transplants; format: in vivo, rat; conditions: for effect of antagonist pretreatment on NMDA dose-response curve, noxious mechanical stimuli, compared to saline pretreatment: adrenal medullary transplanted animals, s.c. 20 min prior to NMDA (2.5, 5.0, 10.0 nmol), naloxone 2.0 mg/kg, phentolamine 10.0 mg/kg
Method: as §1, with “Graft tissue was implanted in the spinal subarachnoid space via laminectomy at the level of the lumbar enlargement as described previously [J. Sagen et al., Brain Res., 384:189-194 (1986); J. Sagen et al., Pain, 42:69-79 (1990)]. Following surgical procedures, musculature was sutured (4-0 silk), and the skin closed with wound clips. Animals were housed individually and allowed food and water ad libitum.” left out
(§3) Animals were allowed to recover from surgical procedures for two weeks prior to commencement of behavioral testing. Responses to noxious and innocuous stimuli were determined using three tests sequentially: the Hargreaves model for thermal hyperalgesia [K. M. Hargreaves et al., Pain, 32:223-231 (1988)], the Randall-Selitto test for mechanical hyperalgesia, and von Frey thresholds for tactile allodynia. […] The apparatus automatically terminates at a scale reading of 25 (=1000 g). […]
as §2

NMDA receptor [3] = assay: NMDA-induced tactile allodynia (von Frey thresholds) in rats with spinal subarachnoid transplants; format: in vivo, rat; conditions: adrenal medullary transplanted animals; s.c. 20 min prior to NMDA (2.5, 5.0, 10.0 nmol); naloxone 2.0 mg/kg, phentolamine 10.0 mg/kg
Method: Experimental procedures were approved and carried out in accordance the Guidelines of the Animal Care Committee, University of Illinois at Chicago. Male Sprague-Dawley rats weighing 325-375 g (Sasco, Madison, Wis.) at the beginning of the study were used as both graft donors and recipients. Graft recipients were anesthetized (Nembutal, 40 mg/kg, i.p., supplemented as necessary) and implanted with intrathecal catheters according to methods described by Yaksh and Rudy [T. L. Yaksh and T. A. Rudy, Physiol. Behav., 17:1031-1036 (1976)]. Catheters were made of PE10 tubing with a knot sealed with dental acrylic at 7.5 cm. […]
as §3, §2

NMDA receptors [4] = assay: [3H]CGP-39653 saturation binding, spinal cord membranes; conditions: normal rat whole spinal cord; one-site binding
Method: (§4) Changes in NMDA receptor levels were determined at three weeks following nerve injury (one week following transplantation), as a marked distinction in responses to sensory stimuli between adrenal medullary and control transplanted animals can be made at this time point. […] [^3 H]CGP-39653 (D,L-(E)-2-amino-4-propyl-5-phosphono-3-pentenoate), a selective high-affinity competitive antagonist at NMDA receptors, was used to label the binding sites. In preliminary experiments, binding characteristics of this ligand were determined in the rat spinal cord. Saturation assays were performed on whole spinal cord tissue, and the results compared to those obtained in cortical membranes. NMDA binding sites were analyzed using previously described procedures with slight modification [M. A. Sills et al., Eur. J. Pharmacol., 192:19-24 (1991)]. Animals were decapitated and the spinal cords were rapidly extruded with saline pressure. […] This volume of tissue corresponded to approximately 110 μg of protein as determined using the Bradford method (BioRad, Richmond, Calif.). […] Nonspecific binding was determined in parallel tubes containing 100 mM L-glutamiate. […] Radioactivity was counted with a Beckman 3270 scintillation counter at 48-52% efficiency. Estimates of binding parameters were determined using the program LIGAND [P. J. Munson and D. Rodbard, Anal. Biochem., 197:220-239 (1980)].

NMDA receptors [5] = assay: [3H]CGP-39653 saturation binding, cortical membranes; conditions: normal rat cortex; one-site binding
Method: as §4

Row | SMILES | effect of antagonist pretreatment on NMDA dose-response curve, noxious thermal stimuli, compared to saline pretreatment (NMDA receptor [1]) | effect of antagonist pretreatment on NMDA dose-response curve, noxious mechanical stimuli, compared to saline pretreatment (NMDA receptor [2]) | effect of antagonist pretreatment on NMDA dose-response curve, innocuous tactile stimuli, compared to saline pretreatment (NMDA receptor [3]) | also measured
1 | C=CCN1CC[C@]23c4c5ccc(O)c4O[C@H]2C(=O)CC[C@@]3(O)[C@H]1C5 [naloxone] | no effect | no effect | no effect | 
2 | CCC/C(=C\C(N)C(=O)O)CP(=O)(O)O (racemic) [[^3 H]CGP-39653, D,L-(E)-2-amino-4-propyl-5-phosphono-3-pentenoate] |  |  |  | Kd (NMDA receptors [4]): 12.9 ± 1.8 nM; Kd (NMDA receptors [5]): 15.4 nM
3 | Cc1ccc(N(CC2=NCCN2)c2cccc(O)c2)cc1 [phentolamine] | significantly shifted the dose-response curves downward | significantly shifted the dose-response curves downward | significantly shifted the dose-response curves downward | 
4 | CN[C@H](CC(=O)O)C(=O)O [NMDA, N-methyl-D-aspartate] |  |  |  | time to significant thermal hyperalgesia in control animals (NMDA receptor [1]; 5 nmol NMDA i.t., control transplanted animals, P<0.05): ≤ 5 min; time of peak effect, thermal hyperalgesia (NMDA receptor [1]; intrathecally administered NMDA, all cases): 30 min; time of peak effect, mechanical hyperalgesia (NMDA receptor [2]; intrathecal NMDA): 30 min
